# Assay results published in US6737383B1, “Herbicidal oxadiazolidines” (priority 1999, dated 2004).
# Experiments:
# bedstraw = assay: Test B pre/postemergence bedstraw; format: in vivo, Galium aparine; settings: Postemergence; for Plant response rating, Bedstraw: scale 0 to 10, 0 is no effect, 10 is complete control; for Bedstraw plant response rating: scale of 0 to 10 where 0 is no effect and 10 is complete control
# Outline: (§1)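 Response is a visual 0-to-10 score relative to untreated plants, where 0 means no effect and 10 means complete control, taken twelve to sixteen days after application. Treatments went onto soil at planting and onto foliage of 1- to 4-leaf plants, using a surfactant-containing non-phytotoxic solvent.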
# blackgrass = assay: Test B pre/postemergence blackgrass; format: in vivo, Alopecurus myosuroides
# Outline: as §1
# surinam grass = assay: Test B pre/postemergence surinam grass; format: in vivo, Brachiaria decumbens
# Outline: as §1
# cocklebur = assay: Test B pre/postemergence cocklebur; format: in vivo, Xanthium strumarium
# Outline: as §1
# corn = assay: Test B pre/postemergence corn; format: in vivo, Zea mays
# Outline: as §1
# crabgrass = assay: Test B pre/postemergence crabgrass; format: in vivo, Digitaria sanguinalis
# Outline: as §1
# giant foxtail = assay: Test B pre/postemergence giant foxtail; format: in vivo, Setaria faberii
# Outline: as §1
# morningglory = assay: Test B pre/postemergence morningglory; format: in vivo, Ipomoea hederacea
# Outline: as §1
# pigweed = assay: Test B pre/postemergence pigweed; format: in vivo, Amaranthus retroflexus
# Outline: as §1
# rape = assay: Test B pre/postemergence rape; format: in vivo, Brassica napus
# Outline: as §1
# soybean = assay: Test B pre/postemergence soybean; format: in vivo, Glycine max
# Outline: as §1
# sugar beet = assay: Test B pre/postemergence sugar beet; format: in vivo, Beta vulgaris
# Outline: as §1
# velvetleaf = assay: Test B pre/postemergence velvetleaf; format: in vivo, Abutilon theophrasti
# Outline: as §1
# wheat = assay: Test B pre/postemergence wheat; format: in vivo, Triticum aestivum
# Outline: as §1
# wild oat = assay: Test B pre/postemergence wild oat; format: in vivo, Avena fatua
# Outline: as §1
# purple nutsedge = assay: Test B pre/postemergence purple nutsedge; format: in vivo, Cyperus rotundus
# Outline: as §1
# rice = assay: Test B flood test rice; format: in vivo, Oryza sativa
# Outline: (§2)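 Plants were grown to the 2-leaf stage before treatment with test chemical, then held in a greenhouse for twelve to sixteen days. Injury was visually rated against untreated controls on a 0–10 scale, where 0 is no effect and 10 is complete control.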
# smallflower flatsedge = assay: Test B flood test smallflower flatsedge; format: in vivo, Cyperus difformis
# Outline: as §2
# duck salad = assay: Test B flood test duck salad; format: in vivo, Heteranthera limosa
# Outline: as §2
# bamyardgrass = assay: Test B flood test barnyardgrass; format: in vivo, Echinochloa crus-galli
# Outline: as §2
# [1] = Postemergence, Rate 125 g/ha, scale 0 to 10, 0 is no effect, 10 is complete control
# [2] = Postemergence, Rate 250 g/ha, scale 0 to 10, 0 is no effect, 10 is complete control
# [3] = Postemergence, Rate 500 g/ha, scale of 0 to 10 where 0 is no effect and 10 is complete control
# [4] = Preemergence, Rate 62 g/ha, scale 0 to 10 (0 no effect, 10 complete control)
# [5] = Preemergence, Rate 125 g/ha, scale of 0 to 10 where 0 is no effect and 10 is complete control
# [6] = Preemergence, Rate 250 g/ha, scale of 0 to 10 where 0 is no effect and 10 is complete control
# [7] = Preemergence, Rate 500 g/ha, scale 0 to 10, 0 is no effect, 10 is complete control
# [8] = Rate 62 g/ha, Postemergence, scale of 0 to 10 where 0 is no effect and 10 is complete control
# [9] = Preemergence, Rate 250 g/ha, scale 0 to 10, 0 is no effect, 10 is complete control
# [10] = Rate 62 g/ha, flood test species, Pre-emergence, visual evaluation after twelve to sixteen days
# [11] = Rate 125 g/ha, under heading Pre-emergence, flood test species, visual evaluation after twelve to sixteen days
# [12] = Rate 250 g/ha, Pre-emergence, flood-test species, scale 0 to 10, 0 is no effect, 10 is complete control
# [13] = Rate 500 g/ha, Pre-emergence, flood test species, scale 0 to 10 (0 no effect, 10 complete control)
smiles,measurement,setting,value
CC(C)N(C(=O)n1oc(=O)n(C)c1=O)c1ccccc1 [Compound 409],"Plant response rating, Bedstraw",bedstraw; Rate 125 g/ha,2
same,"Plant response rating, Bedstraw",bedstraw; Rate 250 g/ha,2
same,Bedstraw plant response rating,bedstraw; Rate 500 g/ha,5
same,Bedstraw plant response rating,bedstraw; Rate 62 g/ha,0
same,"Plant response rating, Blackgrass",blackgrass; [1],8
same,"Plant response rating, Blackgrass",blackgrass; [2],9
same,Blackgrass plant response rating,blackgrass; [3],10
same,"Plant response rating, Blackgrass",blackgrass; [4],4
same,"Plant response rating, Blackgrass",blackgrass; [5],7
same,Blackgrass plant response rating,blackgrass; [6],10
same,Blackgrass plant response rating,blackgrass; [7],10
same,Blackgrass plant response rating,blackgrass; [8],6
same,"Plant response rating, B. signalgrass",surinam grass; [1],5
same,"Plant response rating, B. signalgrass",surinam grass; [2],8
same,B. signalgrass plant response rating,surinam grass; [3],9
same,"Plant response rating, B. signalgrass",surinam grass; [4],0
same,"Plant response rating, B. signalgrass",surinam grass; [5],4
same,B. signalgrass plant response rating,surinam grass; [6],7
same,B. signalgrass plant response rating,"surinam grass; Preemergence, Rate 500 g/ha, scale of 0 to 10 where 0 is no effect and 10 is complete control",9
same,B. signalgrass plant response rating,surinam grass; [8],3
same,"Plant response rating, Cocklebur",cocklebur; [1],0
same,Cocklebur plant response rating,cocklebur; [3],1
same,"Plant response rating, Cocklebur",cocklebur; [4],0
same,"Plant response rating, Cocklebur",cocklebur; [5],0
same,Cocklebur plant response rating,cocklebur; [7],2
same,Cocklebur plant response rating,cocklebur; [8],0
same,"Plant response rating, Corn",corn; [1],5
same,"Plant response rating, Corn",corn; [2],7
same,Corn plant response rating,corn; [3],7
same,"Plant response rating, Corn",corn; [4],7
same,"Plant response rating, Corn",corn; [5],8
same,Corn plant response rating,corn; [9],8
same,Corn plant response rating,corn; [7],10
same,Corn plant response rating,corn; [8],0
same,"Plant response rating, Crabgrass",crabgrass; [1],9
same,"Plant response rating, Crabgrass",crabgrass; [2],9
same,Crabgrass plant response rating,crabgrass; [3],9
same,"Plant response rating, Crabgrass",crabgrass; [4],9
same,"Plant response rating, Crabgrass",crabgrass; [5],9
same,Crabgrass plant response rating,crabgrass; [9],10
same,Crabgrass plant response rating,crabgrass; [7],10
same,Crabgrass plant response rating,crabgrass; [8],6
same,"Plant response rating, Giant foxtail",giant foxtail; [1],8
same,"Plant response rating, Giant foxtail",giant foxtail; [2],9
same,Giant foxtail plant response rating,giant foxtail; [3],9
same,"Plant response rating, Giant foxtail",giant foxtail; [4],9
same,"Plant response rating, Giant foxtail",giant foxtail; [5],10
same,Giant foxtail plant response rating,giant foxtail; [9],10
same,Giant foxtail plant response rating,giant foxtail; [7],10
same,Giant foxtail plant response rating,giant foxtail; [8],8
same,"Plant response rating, Morningglory",morningglory; [2],9
same,Morningglory plant response rating,morningglory; [3],10
same,"Plant response rating, Morningglory",morningglory; [4],0
same,"Plant response rating, Morningglory",morningglory; [5],2
same,Morningglory plant response rating,morningglory; [9],5
same,Morningglory plant response rating,morningglory; [7],5
same,"Plant response rating, Redroot pigweed",pigweed; [2],4
same,Redroot pigweed plant response rating,pigweed; [3],5
same,"Plant response rating, Redroot pigweed",pigweed; [4],7
same,"Plant response rating, Redroot pigweed",pigweed; [5],8
same,Redroot pigweed plant response rating,pigweed; [9],8
same,Redroot pigweed plant response rating,pigweed; [7],10
same,"Plant response rating, Rape",rape; [2],3
same,"Plant response rating, Rape",rape; [4],0
same,"Plant response rating, Rape",rape; [5],0
same,Rape plant response rating,rape; [9],4
same,Rape plant response rating,rape; [7],6
same,"Plant response rating, Soybean",soybean; [2],5
same,Soybean plant response rating,soybean; [3],5
same,"Plant response rating, Soybean",soybean; [4],0
same,"Plant response rating, Soybean",soybean; [5],0
same,Soybean plant response rating,soybean; [9],1
same,Soybean plant response rating,soybean; [7],8
same,"Plant response rating, Sugarbeets",sugar beet; [2],0
same,Sugarbeets plant response rating,sugar beet; [3],0
same,"Plant response rating, Sugarbeets",sugar beet; [4],2
same,"Plant response rating, Sugarbeets",sugar beet; [5],7
same,Sugarbeets plant response rating,sugar beet; [9],8
same,Sugarbeets plant response rating,sugar beet; [7],9
same,"Plant response rating, Velvetleaf",velvetleaf; [2],0
same,Velvetleaf plant response rating,velvetleaf; [3],0
same,"Plant response rating, Velvetleaf",velvetleaf; [4],2
same,"Plant response rating, Velvetleaf",velvetleaf; [5],5
same,Velvetleaf plant response rating,velvetleaf; [9],6
same,Velvetleaf plant response rating,velvetleaf; [7],8
same,Wheat plant response rating,wheat; [3],7
same,"Plant response rating, Wheat",wheat; [4],4
same,"Plant response rating, Wheat",wheat; [5],8
same,Wheat plant response rating,wheat; [9],9
same,Wheat plant response rating,wheat; [7],10
same,Wild oats plant response rating,wild oat; [3],4
same,"Plant response rating, Wild oats",wild oat; [4],0
same,"Plant response rating, Wild oats",wild oat; [5],5
same,Wild oats plant response rating,wild oat; [9],7
same,Wild oats plant response rating,wild oat; [7],8
same,"Plant response rating, Nutsedge",purple nutsedge; [2],0
same,Nutsedge plant response rating,purple nutsedge; [3],0
same,Nutsedge plant response rating,purple nutsedge; [9],8
same,Nutsedge plant response rating,purple nutsedge; [7],8
same,"Plant response rating, Rice (0 to 10 scale, 0 is no effect, 10 is complete control)",rice; [10],0
same,"Rice plant response rating (0 to 10 scale, 0 is no effect, 10 is complete control)",rice; [11],0
same,Rice plant response rating,rice; [12],0
same,Rice plant response rating,rice; [13],0
same,"Plant response rating, S. Flatsedge (0 to 10 scale, 0 is no effect, 10 is complete control)",smallflower flatsedge; [10],0
same,"S. Flatsedge plant response rating (0 to 10 scale, 0 is no effect, 10 is complete control)",smallflower flatsedge; [11],0
same,S. Flatsedge plant response rating,smallflower flatsedge; [12],2
same,S. Flatsedge plant response rating,smallflower flatsedge; [13],2
same,"Plant response rating, Ducksalad (0 to 10 scale, 0 is no effect, 10 is complete control)",duck salad; [10],0
same,"Ducksalad plant response rating (0 to 10 scale, 0 is no effect, 10 is complete control)",duck salad; [11],0
same,Ducksalad plant response rating,duck salad; [12],0
same,Ducksalad plant response rating,duck salad; [13],0
same,"Plant response rating, Barnyardgrass (0 to 10 scale, 0 is no effect, 10 is complete control)",bamyardgrass; [10],1
same,"Barnyardgrass plant response rating (0 to 10 scale, 0 is no effect, 10 is complete control)",bamyardgrass; [11],2
same,Barnyardgrass plant response rating,bamyardgrass; [12],3
same,Barnyardgrass plant response rating,bamyardgrass; [13],3
